Results: PMC9260667, “Thioredoxin Reductase Inhibitors as Potential Antitumors: Mercury Compounds Efficacy in Glioma Cells” (Frontiers in Molecular Biosciences, 2022)

Experiments:
Assay type in all cases: cell-based, mouse
GL261 cells [1] = assay: cells; conditions: for increase of LDH release upon co-exposure with TMZ: GL261, 200 µM TMZ + 1 µM mercury compound; for EC50: GL261, 24 h exposure, read-out: EC50 (LDH assay)
Experimental: Cells were seeded in 96-well plates for 24 h prior to the addition of TmHg, EtHg (1 µM), TMZ (200, 400, and 800 µM), and for the 48 h end point the co-exposure of TMZ 200 µM with 1 µM EtHg and 1 µM TmHg. After exposure for 24 and 48 h, the supernatant was transferred to a fresh plate and a lysis buffer (10×) (Thermo Scientific™ Pierce™) was added to wells containing cells and incubated at 37°C for 45 min. LDH activity was evaluated using LDH Cytotoxicity Assay Kit from Thermo Scientific™ Pierce™ in the supernatant and lysate by the addition of lactate (substrate), a tetrazolium salt, and NAD^+ (cofactor) (Reaction Mixture), according to the manufacturer’s instructions. Following 30 min of incubation in the dark at room temperature, LDH release was assessed by measuring the absorbance at 490 and 680 nm in a microplate reader (Omega BMG LABTECH). The release of LDH was quantified as the ratio between the amount in the supernatant and total LDH (supernatant + lysate) ([Branco et al., 2017]).

Prx2 = Prx2 redox state (dimer/monomer, non-reducing Western blot); conditions: GL261, 1 and 2 μM, 24 h
Experimental: To evaluate the Prx2 redox state, cells were lysed in lysis buffer containing NEM (N-ethylmaleimide; Sigma) and, subsequently, the soluble protein fraction was separated by non-reducing SDS-PAGE electrophoresis, followed by transfer to a nitrocellulose membrane, after blockage with milk and incubation with the respective antibodies–Prx2 mouse monoclonal IgG (sc-515428, Sta. Cruz) and goat anti-mouse IgG-HRP (sc-2005, Sta. Cruz)—as previously described ([Brown et al., 2008]). The ratio between the bands of the Prx2 dimer and monomer was quantified for each sample using the Bio-Rad Quantity One software.

Caspase-3 = Caspase-3 activity (DEVD-pNA assay) in lysates of exposed GL261 cells; conditions: GL261, 5 µM, 24 h
Experimental: Caspase-3 activity was determined by measuring the enzymatic cleavage of chromophore p-nitroanilide (pNA) from the substrate N-acetyl-Asp-Glu-Val-Asp-pNA (DEVD-pNA) ([Borralho et al., 2007]).
This activity was determined based on a proteolytic reaction previously described ([Borralho et al., 2007]) with some modifications. In this assay total cell lysates were used, where cells were exposed to the TmHg and EtHg (1; 2 and 5 µM) for 24 h. This reaction was performed in an isolation buffer, containing 100 μg of cytosolic protein of cellular lysates, 50 μM of DTT, and […] of DEVD-pNA (Sigma-Aldrich). Next, the reaction mixtures were incubated at 37°C for 3 h. Finally, the pNa formation was measured at 405 nm using a microplate reader (Zenyth 3100, Anthos Labtec Instruments) ([Borralho et al., 2007]).

GL261 cells [2] = assay: Guava ViaCount assay, apoptotic cells; conditions: GL261, 24 and 48 h exposure
Experimental: The ViaCount Assay was used to distinguish viable and non-viable cells based on the differential permeability of two dyes in the Guava ViaCount Reagent. The membrane-permeant dye stains all nucleated cells, leaving the cellular debris unstained, while the membrane-impermeant dye brightly stains damaged cells, thus indicating apoptotic and dying cells. GL261 cells (6 × 10^4) were seeded for 24 h in 24-well plates and thereafter were exposed to the TmHg and EtHg for 24 and 48 h. Following treatment, cells were collected from plates along with cell culture supernatants and centrifuged for 5 min (650 g). Supernatants were discarded and the cells were resuspended in phosphate-buffered saline (PBS) containing 2% FBS. Subsequently, 15 μL of cell suspension were mixed with 135 μL of Guava ViaCount reagent and incubated for 5 min at room temperature. Sample acquisition and data analysis were performed with the Guava easyCyte 5HT flow cytometer (GuavaTechnologies, Inc., Hayward, CA, United States) using the ViaCount software module.

GL261 cells [3] = assay: ROS production (H2DCFDA assay); conditions: GL261, 3 h exposure, 0.5-5 µM
Experimental: The assessment of general ROS production was based on the 2′,7′-dichlorodihydrofluorescein diacetate (H2DCFDA) assay ([Huang et al., 2014]).
Cells (8 × 10^4) were plated in black 96-well microplates and then incubated at 37°C for 24 h. Afterwards, the medium was removed, the cells were washed twice with PBS 1x, and culture media with DHCF-DA ([…]) was added to each well followed by a 40 min incubation at 37°C. After the incubation period, the DHCF-DA containing media was removed and the wells were washed twice with PBS 1x before being replenished with fresh medium. This was followed by exposure of cells to Hg compounds (EtHg and TmHg 0.5; 1, 2.5; and 5 µM) for 3 h using 1 mM H2O2 as a positive control. The fluorescence signal was read in a microplate reader (Zenyth 3100, Anthos Labtec Instruments) using 495 nm as the excitation wavelength and 529 nm as the emission wavelength.

SMILES	increase of LDH release upon co-exposure with TMZ (GL261 cells [1])	EC50 (GL261 cells [1]) [nM]	EC50 (LDH) fold lower in GL261 than in SH-SY5Y cells (GL261 cells [1]; GL261 versus previously reported SH-SY5Y value (Branco et al., 2017)) [fold]	increase in Prx2 dimerization relative to non-treated control (Prx2)	increase of caspase-3 activity (Caspase-3)	increase in number of apoptotic cells compared to control (GL261 cells [2]) [%]	ROS production (GL261 cells [3])
C[CH2][Hg] [EtHg, ethylmercury]	greater than 50%	1710 ± 400	3	20–40%	up to 50%	> 50	concentration-dependent increase
C[CH2][Hg][S]c1ccccc1C(=O)[O-].[Na+] [TmHg, thimerosal]	greater than 50%	1310 ± 200	–	20–40%	up to 50%	> 50	concentration-dependent increase
